Experimental data published in patent US7138361B2, “Herbicidal heterocycles” (E. I. du Pont de Nemours and Company, priority 2000, dated 2006).

Assays:
Type in all cases: in vivo
[1] = tested on: barnyardgrass (Echinochloa crus-galli); assay: Test B preemergence; details: scale 0 to 100, 0 no effect, 100 complete control
Method in brief: (§1)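 Visual injury scores, 0 = no effect to 100 = complete control, assigned against controls after 13 to 15 days in the greenhouse. Compounds formulated in non-phytotoxic solvent plus surfactant and applied to soil after planting (pre) or onto foliage of 1- to 4-leaf plants (post).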

[2] = tested on: cocklebur (Xanthium strumarium); assay: Test B preemergence; details: scale 0 to 100, 0 no effect, 100 complete control
Method in brief: as §1

[3] = tested on: giant foxtail (Setaria faberii); assay: Test B preemergence; details: scale 0 to 100, 0 no effect, 100 complete control
Method in brief: as §1

[4] = tested on: morning glory (Ipomoea hederacea); assay: Test B preemergence; details: Preemergence, Rate 500 g/ha; scale 0 to 100, 0 no effect, 100 complete control
Method in brief: as §1

corn (Zea mays) = assay: Test B preemergence; details: scale 0 to 100, 0 no effect, 100 complete control
Method in brief: as §1

[5] = tested on: pigweed (Amaranthus retroflexus); assay: Test B preemergence; details: Preemergence, Rate 500 g/ha; scale 0 to 100, 0 no effect, 100 complete control
Method in brief: as §1

[6] = tested on: crabgrass (Digitaria sanguinalis); assay: Test B preemergence; details: scale 0 to 100, 0 no effect, 100 complete control
Method in brief: as §1

[7] = tested on: Surinam grass (Brachiaria decumbens); assay: Test B preemergence; details: scale 0 to 100, 0 no effect, 100 complete control
Method in brief: as §1

[8] = tested on: velvetleaf (Abutilon theophrasti); assay: Test B preemergence; details: Preemergence, Rate 500 g/ha; scale 0 to 100, 0 no effect, 100 complete control
Method in brief: as §1

rice (Oryza saliva) = assay: Test B preemergence; details: Preemergence, Rate 500 g/ha; scale 0 to 100, 0 no effect, 100 complete control
Method in brief: as §1

[9] = tested on: lambsquarters (Chenopodium album); assay: Test B preemergence; details: scale 0 to 100, 0 no effect, 100 complete control
Method in brief: as §1

Nightshade = assay: Test C preemergence; details: Rate 250 g/ha, visual evaluation after 12 to 14 days
Sunflower = assay: Test C preemergence; details: Rate 125 g/ha, scale 0 to 100, 0 no effect, 100 complete control
[10] = tested on: cocklebur (Xanthium strumarium); assay: Test C preemergence; details: for Plant response rating (0 to 100), Cocklebur: Rate 250 g/ha, visual evaluation after 12 to 14 days
Method in brief: (§2)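 Visual 0–100 rating vs controls (0 = no effect, 100 = complete control) at 12–14 d, greenhouse. Compounds in non-phytotoxic solvent + surfactant; pre: sprayed after seeding; post: 1–4-leaf plants, 2–18 cm.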

[11] = tested on: giant foxtail (Setaria faberii); assay: Test C preemergence; details: for Plant response rating (0 to 100), Foxtail, Giant: Rate 250 g/ha, visual evaluation after 12 to 14 days
Method in brief: as §2

kochia (Kochia scoparia) = assay: Test C preemergence; details: for Plant response rating (0 to 100), Kochia: Rate 250 g/ha, visual evaluation after 12 to 14 days
Method in brief: as §2

[12] = tested on: pigweed (Amaranthus retroflexus); assay: Test C preemergence; details: for Plant response rating (0 to 100), Pigweed: Rate 250 g/ha, visual evaluation after 12 to 14 days
Method in brief: as §2

[13] = tested on: bermudagrass (Cynodon dactylon); assay: Test C preemergence; details: for Plant response rating (0 to 100 where 0 is no effect and 100 is complete control), Bermudagrass: Rate 250 g/ha, visual evaluation after 12 to 14 days
Method in brief: as §2

[14] = tested on: crabgrass (Digitaria sanguinalis); assay: Test C preemergence; details: for Plant response rating (0 to 100), Crabgrass: Rate 250 g/ha, visual evaluation after 12 to 14 days
Method in brief: as §2

[15] = tested on: Surinam grass (Brachiaria decumbens); assay: Test C preemergence; details: for Plant response rating (0 to 100), Surinam grass: Rate 250 g/ha, visual evaluation after 12 to 14 days
Method in brief: as §2

soybean (Glycine max) = assay: Test C preemergence; details: for Plant response rating (0 to 100), Soybean: Rate 250 g/ha, visual evaluation after 12 to 14 days
Method in brief: as §2

[16] = tested on: woolly cupgrass (Eriochloa villosa); assay: Test C preemergence; details: for Plant response rating (0 to 100), Cupgrass, Woolly: Rate 250 g/ha, visual evaluation after 12 to 14 days
Method in brief: as §2

[17] = preemergence, Rate 31 g/ha, scale 0 to 100
[18] = preemergence, Rate 125 g/ha, scale 0 to 100, 0 no effect, 100 complete control
[19] = Rate 62 g/ha, scale 0 to 100, 0 no effect, 100 complete control
[20] = Preemergence, Rate 500 g/ha, scale 0 to 100

In the case of `O=C1C(n2ccc(C3CCC3)n2)SCN1c1cccc(C(F)(F)F)c1` (stereo not drawn) [Compound 37], the “Plant response rating, Barnyardgrass” value ([1]; Preemergence, Rate 500 g/ha) is reported as 100, the “Plant response rating, Barnyardgrass” value ([1]; preemergence, Rate 125 g/ha) is reported as 0 and the “Plant response rating, Cocklebur” value ([2]; preemergence, Rate 125 g/ha) is reported as 0. The “Plant response rating, Foxtail, Giant” value ([3]; Preemergence, Rate 500 g/ha) was 100, the “Plant response rating, Foxtail, Giant” value ([3]; preemergence, Rate 125 g/ha) was 40 and the “Plant response rating, Morningglory” value [4] was 0. For the same compound, the “Plant response rating, Corn” value (corn (Zea mays); Preemergence, Rate 500 g/ha) was 0, the “Plant response rating, Corn” value (corn (Zea mays); preemergence, Rate 125 g/ha) was 0 and the “Plant response rating, Pigweed” value [5] was 100. For the same compound, the “Plant response rating, Crabgrass” value ([6]; Preemergence, Rate 500 g/ha) was 100, the “Plant response rating, Crabgrass” value ([6]; preemergence, Rate 125 g/ha) was 0 and the “Plant response rating, Surinam grass” value ([7]; Preemergence, Rate 500 g/ha) was 0. For the same compound, the “Plant response rating, Surinam grass” value ([7]; preemergence, Rate 125 g/ha) was 0, the “Plant response rating, Velvetleaf” value [8] was 0 and the “Plant response rating, Rice” value (rice (Oryza saliva)) was 0. The “Plant response rating, Lambsquarters” value ([9]; Preemergence, Rate 500 g/ha) was 100, the “Plant response rating, Lambsquarters” value ([9]; preemergence, Rate 125 g/ha) was 100 and the “Plant response rating (0 to 100), Nightshade” value (Nightshade) was 0. The “Plant response rating, Sunflower” value (Sunflower) was 0, the “Plant response rating, Cocklebur” value [10, 17] was 0 and the “Plant response rating (0 to 100), Cocklebur” value ([10]; preemergence) was 0. The “Plant response rating, Cocklebur” value [10, 18] was 0, the “Plant response rating, Foxtail, Giant” value [11, 19] was 60 and the “Plant response rating, Foxtail, Giant” value [11, 17] was 50. For the same compound, the “Plant response rating (0 to 100), Foxtail, Giant” value ([11]; preemergence) was 100, the “Plant response rating, Foxtail, Giant” value [11, 18] was 70 and the “Plant response rating, Kochia” value (kochia (Kochia scoparia); [19]) was 50. For the same compound, the “Plant response rating, Kochia” value (kochia (Kochia scoparia); [17]) was 40, the “Plant response rating (0 to 100), Kochia” value (kochia (Kochia scoparia); preemergence) was 100 and the “Plant response rating, Kochia” value (kochia (Kochia scoparia); [18]) was 100. For the same compound, the “Plant response rating, Pigweed” value [12, 19] was 0, the “Plant response rating, Pigweed” value [12, 17] was 0 and the “Plant response rating (0 to 100), Pigweed” value ([12]; preemergence) was 100. The “Plant response rating, Pigweed” value [12, 18] was 0, the “Plant response rating, Bermudagrass” value [13, 19] was 70 and the “Plant response rating, Bermudagrass” value [13, 17] was 60. For the same compound, the “Plant response rating (0 to 100 where 0 is no effect and 100 is complete control), Bermudagrass” value ([13]; preemergence) was 100, the “Plant response rating, Bermudagrass” value [13, 18] was 80 and the “Plant response rating, Crabgrass” value [14, 19] was 90. The “Plant response rating, Crabgrass” value [14, 17] was 80, the “Plant response rating (0 to 100), Crabgrass” value ([14]; preemergence) was 100 and the “Plant response rating, Crabgrass” value [14, 18] was 90. The “Plant response rating, Surinam grass” value [15, 19] was 0, the “Plant response rating, Surinam grass” value [15, 17] was 0 and the “Plant response rating (0 to 100), Surinam grass” value ([15]; preemergence) was 90. For the same compound, the “Plant response rating, Surinam grass” value [15, 18] was 0, the “Plant response rating, Soybean” value (soybean (Glycine max); [19]) was 0 and the “Plant response rating, Soybean” value (soybean (Glycine max); [17]) was 0. The “Plant response rating (0 to 100), Soybean” value (soybean (Glycine max); preemergence) was 50, the “Plant response rating, Cupgrass, Woolly” value [16, 19] was 0 and the “Plant response rating, Cupgrass, Woolly” value [16, 17] was 0. For the same compound, the “Plant response rating (0 to 100), Cupgrass, Woolly” value ([16]; preemergence) was 100 and the “Plant response rating, Cupgrass, Woolly” value [16, 18] was 0.
With `O=C1C(n2ccc(C3CCC3)n2)SCN1c1cccc(OC(F)(F)F)c1` (stereo not drawn) [Compound 38] the “Plant response rating, Barnyardgrass” value ([1]; Preemergence, Rate 500 g/ha) was 100, the “Plant response rating, Barnyardgrass” value ([1]; preemergence, Rate 125 g/ha) was 70 and the “Plant response rating, Cocklebur” value ([2]; Preemergence, Rate 500 g/ha) was 0. The “Plant response rating, Foxtail, Giant” value ([3]; Preemergence, Rate 500 g/ha) was 100, the “Plant response rating, Foxtail, Giant” value ([3]; preemergence, Rate 125 g/ha) was 0 and the “Plant response rating, Morningglory” value [4] was 0. The “Plant response rating, Corn” value (corn (Zea mays); Preemergence, Rate 500 g/ha) was 0, the “Plant response rating, Corn” value (corn (Zea mays); preemergence, Rate 125 g/ha) was 0 and the “Plant response rating, Pigweed” value [5] was 100. The “Plant response rating, Crabgrass” value ([6]; Preemergence, Rate 500 g/ha) was 100, the “Plant response rating, Crabgrass” value ([6]; preemergence, Rate 125 g/ha) was 0 and the “Plant response rating, Surinam grass” value ([7]; Preemergence, Rate 500 g/ha) was 60. The “Plant response rating, Surinam grass” value ([7]; preemergence, Rate 125 g/ha) was 0, the “Plant response rating, Velvetleaf” value [8] was 0 and the “Plant response rating, Rice” value (rice (Oryza saliva)) was 10. For the same compound, the “Plant response rating, Lambsquarters” value ([9]; Preemergence, Rate 500 g/ha) was 100, the “Plant response rating, Lambsquarters” value ([9]; preemergence, Rate 125 g/ha) was 100 and the “Plant response rating (0 to 100), Nightshade” value (Nightshade) was 60. The “Plant response rating, Sunflower” value (Sunflower) was 0, the “Plant response rating, Cocklebur” value [10, 20] was 60 and the “Plant response rating, Cocklebur” value [10, 19] was 0. For the same compound, the “Plant response rating (0 to 100), Cocklebur” value ([10]; preemergence) was 20, the “Plant response rating, Cocklebur” value [10, 18] was 0 and the “Plant response rating, Foxtail, Giant” value [11, 20] was 100. For the same compound, the “Plant response rating, Foxtail, Giant” value [11, 19] was 80, the “Plant response rating (0 to 100), Foxtail, Giant” value ([11]; preemergence) was 100 and the “Plant response rating, Foxtail, Giant” value [11, 18] was 0. For the same compound, the “Plant response rating, Kochia” value (kochia (Kochia scoparia); [20]) was 100, the “Plant response rating, Kochia” value (kochia (Kochia scoparia); [19]) was 30 and the “Plant response rating (0 to 100), Kochia” value (kochia (Kochia scoparia); preemergence) was 90. The “Plant response rating, Kochia” value (kochia (Kochia scoparia); [18]) was 70, the “Plant response rating, Pigweed” value [12, 20] was 30 and the “Plant response rating, Pigweed” value [12, 19] was 0. The “Plant response rating (0 to 100), Pigweed” value ([12]; preemergence) was 0, the “Plant response rating, Pigweed” value [12, 18] was 0 and the “Plant response rating, Bermudagrass” value [13, 20] was 100. For the same compound, the “Plant response rating, Bermudagrass” value [13, 19] was 60, the “Plant response rating (0 to 100 where 0 is no effect and 100 is complete control), Bermudagrass” value ([13]; preemergence) was 100 and the “Plant response rating, Bermudagrass” value [13, 18] was 90. For the same compound, the “Plant response rating, Crabgrass” value [14, 20] was 100, the “Plant response rating, Crabgrass” value [14, 19] was 90 and the “Plant response rating (0 to 100), Crabgrass” value ([14]; preemergence) was 100. For the same compound, the “Plant response rating, Crabgrass” value [14, 18] was 100, the “Plant response rating, Surinam grass” value [15, 20] was 90 and the “Plant response rating, Surinam grass” value [15, 19] was 0. For the same compound, the “Plant response rating (0 to 100), Surinam grass” value ([15]; preemergence) was 0, the “Plant response rating, Surinam grass” value [15, 18] was 0 and the “Plant response rating, Soybean” value (soybean (Glycine max); [20]) was 0. The “Plant response rating, Soybean” value (soybean (Glycine max); [19]) was 0, the “Plant response rating (0 to 100), Soybean” value (soybean (Glycine max); preemergence) was 0 and the “Plant response rating, Soybean” value (soybean (Glycine max); [18]) was 0. The “Plant response rating, Cupgrass, Woolly” value [16, 20] was 90, the “Plant response rating, Cupgrass, Woolly” value [16, 19] was 0 and the “Plant response rating (0 to 100), Cupgrass, Woolly” value ([16]; preemergence) was 0. For the same compound, the “Plant response rating, Cupgrass, Woolly” value [16, 18] was 0.
